The term Emax denotes the size of the effect at its maximum, as opposed to the concentration needed. For orientation: EC50 means the midpoint of the concentration-response curve.

Common to all, as to format: cell-based
The target in one assay is T1, hGIPR (Homo sapiens, UniProt P48546).
T1 construct: expressed in transfected cells
T1 sequence (P48546 22-466): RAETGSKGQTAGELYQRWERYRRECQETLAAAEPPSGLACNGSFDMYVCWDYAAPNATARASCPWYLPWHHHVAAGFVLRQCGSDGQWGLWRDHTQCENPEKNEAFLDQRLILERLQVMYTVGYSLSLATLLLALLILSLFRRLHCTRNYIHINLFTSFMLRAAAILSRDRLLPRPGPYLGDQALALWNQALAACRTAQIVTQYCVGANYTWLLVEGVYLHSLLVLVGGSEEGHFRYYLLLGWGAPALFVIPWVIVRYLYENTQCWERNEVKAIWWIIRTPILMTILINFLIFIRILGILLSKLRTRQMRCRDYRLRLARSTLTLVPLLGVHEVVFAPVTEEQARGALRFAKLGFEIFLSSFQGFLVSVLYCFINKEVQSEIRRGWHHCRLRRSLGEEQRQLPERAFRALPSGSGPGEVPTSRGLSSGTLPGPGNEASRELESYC
In words: Functional cAMP formation (HTRF) in HEK-293 clonal cells expressing hGIPR, 0.1% bovine casein, without or with 1.0% human serum albumin. Conditions: for Emax: read-out: hGIPR Emax, % ± SEM; for EC50: cAMP, read-out: hGIPR EC50, nM (SEM, n). The method in brief: (§1)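 Cells were stimulated with peptide for 30 min at 37° C, then intracellular cAMP was measured by competitive HTRF (665/620 nm ratio) and converted to nM using a cAMP standard curve. Relative EC50 and Emax came from four-parameter logistic fits of percent maximal response against peptide concentration.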
Background: Changes in cAMP serve as a functional read-out for many G protein-coupled receptors.

The next assay deals with T2, hGCGR (Homo sapiens, UniProt P47871).
T2 construct: expressed in transfected cells
In words: Functional cAMP formation (HTRF) in HEK-293 clonal cells expressing hGCGR, 0.1% bovine casein, without or with 1.0% human serum albumin. To be noted: read-out: hGCGR EC50, nM (SEM, n). The essentials: as §1

For the next assay, the target named is hGLP-1R (Homo sapiens, UniProt P43220). In words: Functional cAMP formation (HTRF) in HEK-293 clonal cells expressing hGLP-1R, 0.1% bovine casein, without or with 1.0% human serum albumin. Set-up: expressed in transfected cells. To be noted: for Emax: read-out: hGLP-1R Emax, % ± SEM; for EC50: cAMP, read-out: hGLP-1R EC50, nM (SEM, n). The method in brief:
as §1

[1] abbreviates: HEK293, cAMP, 37° C., 0.1% bovine casein and 1.0% human serum albumin, percent of maximal response to GIP(1-42)NH2.
The mark [2] stands for this setting: 37° C., 0.1% bovine casein (no human serum albumin), geometric mean.
[3] abbreviates: cAMP, 37° C., 0.1% bovine casein (no human serum albumin), geometric mean.
Setting [4] is: cAMP, 37° C., 0.1% bovine casein and 1.0% human serum albumin, geometric mean (SEM, n).
Where [5] appears, read: HEK293, cAMP, 37° C., 0.1% bovine casein, percent of maximal response to GLP-1(7-36)NH2, arithmetic mean.
Setting [6] is: 37° C., 0.1% bovine casein and 1.0% human serum albumin, geometric mean (SEM, n).
Where [7] appears, read: HEK293, cAMP, 37° C., 0.1% bovine casein and 1.0% human serum albumin, percent of maximal response to GLP-1(7-36)NH2.
[8] abbreviates: incubated at 37° C., 0.1% bovine casein (no human serum albumin), geometric mean.

Structures are written as SMILES. Where two headings read alike, the source gives them in different places. *1 amine or outer side, *2 acyl side, *3 side chain or, on linkers, in order; H or OH if unused. Where a SMILES comes first, the peptide text is derived from it. Side-chain parts run from the residue outwards. [ ]: non-standard residue; d: D form. The star is where a group is joined. αMePhe(2-F) = C[C@](N)(Cc1ccccc1F)C(=O)O; γGlu = O=C(O)[C@H](CCC(=O)[*:2])N[*:1]; αMeY = C[C@](N)(Cc1ccc(O)cc1)C(=O)O; αMeF = C[C@](N)(Cc1ccccc1)C(=O)O; 4Pal = N[C@@H](Cc1ccncc1)C(=O)O; αMeL = CC(C)C[C@](C)(N)C(=O)O; Lauroyl = CCCCCCCCCCCC(=O)*; Orn = NCCC[C@H](N)C(=O)O; AEEA = NCCOCCOCC(=O)O; Aib = CC(C)(N)C(=O)O

hGLP-1R, sequence (P43220 24-463): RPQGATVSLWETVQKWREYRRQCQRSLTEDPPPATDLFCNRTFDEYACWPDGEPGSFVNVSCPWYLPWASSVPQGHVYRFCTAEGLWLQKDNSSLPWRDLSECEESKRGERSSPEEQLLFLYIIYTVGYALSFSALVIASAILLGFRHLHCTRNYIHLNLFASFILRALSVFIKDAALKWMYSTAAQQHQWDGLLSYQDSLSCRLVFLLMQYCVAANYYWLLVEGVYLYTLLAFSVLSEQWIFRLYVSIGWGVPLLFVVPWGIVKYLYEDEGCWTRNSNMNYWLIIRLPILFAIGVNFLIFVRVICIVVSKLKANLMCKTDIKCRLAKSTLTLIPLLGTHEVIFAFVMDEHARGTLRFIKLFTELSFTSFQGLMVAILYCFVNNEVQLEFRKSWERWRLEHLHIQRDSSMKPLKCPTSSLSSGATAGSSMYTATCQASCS
T2 sequence (P47871 26-477): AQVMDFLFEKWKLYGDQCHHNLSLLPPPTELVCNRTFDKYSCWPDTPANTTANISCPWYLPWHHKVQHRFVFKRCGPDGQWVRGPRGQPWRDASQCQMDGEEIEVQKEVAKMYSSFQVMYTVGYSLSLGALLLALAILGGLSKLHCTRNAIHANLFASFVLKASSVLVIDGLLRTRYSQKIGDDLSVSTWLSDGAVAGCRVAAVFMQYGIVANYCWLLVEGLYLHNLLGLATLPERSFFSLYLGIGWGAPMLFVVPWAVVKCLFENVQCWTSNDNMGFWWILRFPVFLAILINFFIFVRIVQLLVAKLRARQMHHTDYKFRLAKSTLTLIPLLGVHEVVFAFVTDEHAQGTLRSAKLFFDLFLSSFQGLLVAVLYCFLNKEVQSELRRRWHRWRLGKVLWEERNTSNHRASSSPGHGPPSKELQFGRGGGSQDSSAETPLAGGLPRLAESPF

Regarding `CCCCCCCCCCCC(=O)N[C@@H](CCC(=O)NCCOCCOCC(=O)NCCOCCOCC(=O)NCCCC[C@H](NC(=O)[C@H](CCCN)NC(=O)[C@H](CC(=O)O)NC(=O)[C@H](CC(C)C)NC(=O)[C@](C)(CC(C)C)NC(=O)[C@@H](NC(=O)C(C)(C)NC(=O)[C@H](Cc1ccncc1)NC(=O)[C@H](CC(=O)O)NC(=O)[C@H](CO)NC(=O)[C@@H](NC(=O)[C@](C)(Cc1ccccc1F)NC(=O)[C@@H](NC(=O)CNC(=O)[C@H](CCC(=O)O)NC(=O)C(C)(C)NC(=O)[C@@H](N)Cc1ccc(O)cc1)[C@@H](C)O)[C@@H](C)O)[C@@H](C)CC)C(=O)N[C@@H](C)C(=O)N[C@@H](CCC(N)=O)C(=O)NC(C)(C)C(=O)N[C@@H](CCCCNC(=O)COCCOCCNC(=O)COCCOCCNC(=O)CC[C@H](NC(=O)CCCCCCCCCCC)C(=O)O)C(=O)N[C@@H](Cc1ccccc1)C(=O)N[C@H](C(=O)N[C@H](CCC(=O)O)C(=O)N[C@@](C)(Cc1ccc(O)cc1)C(=O)N[C@@H](CC(C)C)C(=O)N[C@H](C(=O)N[C@@H](CCCN)C(=O)NCC(=O)NCC(=O)N1CCC[C@H]1C(=O)N[C@@H](CO)C(=O)N[C@@H](CO)C(=O)NCC(=O)N[C@@H](C)C(=O)N1CCC[C@H]1C(=O)N1CCC[C@H]1C(=O)N1CCC[C@H]1C(=O)N[C@@H](CO)C(N)=O)[C@@H](C)CC)[C@@H](C)CC)C(=O)O` [Example 413], the values for the Emax on hGIPR (setting [1]) and on hGLP-1R (setting [5]) were 91.8% and 96.9%, respectively. Also, the concentration giving a half-maximal response (EC50) is 0.0146 nM on hGIPR (setting [2]); > 9950 nM on hGCGR (setting [3]); > 9950 nM at hGCGR (setting [4]); 0.234 nM on hGLP-1R (setting [2]); 5.47 nM on hGLP-1R (setting [6]).
With `CC[C@H](C)[C@H](NC(=O)[C@H](CC(C)C)NC(=O)[C@](C)(Cc1ccc(O)cc1)NC(=O)[C@@H](CCC(=O)O)NC(=O)[C@@H](NC(=O)[C@H](Cc1ccccc1)NC(=O)[C@H](CCCCNC(=O)COCCOCCNC(=O)COCCOCCNC(=O)CCCCCCCCCCCCC(=O)O)NC(=O)C(C)(C)NC(=O)[C@H](CCC(N)=O)NC(=O)[C@H](C)NC(=O)[C@H](CCCCNC(=O)COCCOCCNC(=O)COCCOCCNC(=O)CCCCCCCCCCCCC(=O)O)NC(=O)[C@H](CCCN)NC(=O)[C@H](CC(=O)O)NC(=O)[C@H](CC(C)C)NC(=O)[C@](C)(CC(C)C)NC(=O)[C@@H](NC(=O)C(C)(C)NC(=O)[C@@H](NC(=O)[C@H](CC(=O)O)NC(=O)[C@H](CO)NC(=O)[C@@H](NC(=O)[C@](C)(Cc1ccccc1F)NC(=O)[C@@H](NC(=O)CNC(=O)[C@H](CCC(=O)O)NC(=O)C(C)(C)NC(=O)[C@@H](N)Cc1ccc(O)cc1)[C@@H](C)O)[C@@H](C)O)C(C)C)[C@@H](C)CC)[C@@H](C)CC)C(=O)N[C@@H](CCC(=O)O)C(=O)NCC(=O)NCC(=O)N1CCC[C@H]1C(=O)N[C@@H](CO)C(=O)N[C@@H](CO)C(=O)NCC(=O)N[C@@H](C)C(=O)N1CCC[C@H]1C(=O)N1CCC[C@H]1C(=O)N1CCC[C@H]1C(=O)N[C@@H](CO)C(N)=O` [Example 386], the maximum response (Emax) at hGIPR (setting [1]) came out at 81.3%; at hGIPR (HEK293, cAMP, 37° C., 0.1% bovine casein, percent of maximal response to GIP(1-42)NH2, arithmetic mean), 95.7%; on hGLP-1R (setting [7]), 96.8%; on hGLP-1R (setting [5]), 98.9%. Besides, the EC50 on hGIPR (setting [2]) is 0.0174 nM; on hGIPR (setting [6]), 2.08 nM; on hGCGR (setting [3]) it was > 9950 nM; on hGCGR (setting [4]), > 9950 nM; at hGLP-1R (setting [2]), 0.194 nM.
For `CCCCCCCCCCCC(=O)N[C@@H](CCC(=O)NCCOCCOCC(=O)NCCOCCOCC(=O)NCCCC[C@H](NC(=O)[C@H](CO)NC(=O)[C@@H]1CCCN1C(=O)[C@@H]1CCCN1C(=O)[C@@H]1CCCN1C(=O)[C@H](C)NC(=O)CNC(=O)[C@H](CO)NC(=O)[C@H](CO)NC(=O)[C@@H]1CCCN1C(=O)CNC(=O)CNC(=O)[C@H](CCC(=O)O)NC(=O)[C@@H](NC(=O)[C@H](CC(C)C)NC(=O)[C@](C)(Cc1ccc(O)cc1)NC(=O)[C@@H](CCC(=O)O)NC(=O)[C@@H](NC(=O)[C@](C)(Cc1ccccc1)NC(=O)[C@H](CCC(=O)O)NC(=O)C(C)(C)NC(=O)[C@H](CCC(N)=O)NC(=O)[C@H](C)NC(=O)[C@H](CCCCNC(=O)COCCOCCNC(=O)COCCOCCNC(=O)CC[C@H](NC(=O)CCCCCCCCCCC)C(=O)O)NC(=O)[C@H](CCCN)NC(=O)[C@H](CC(=O)O)NC(=O)[C@H](CC(C)C)NC(=O)[C@](C)(CC(C)C)NC(=O)[C@@H](NC(=O)C(C)(C)NC(=O)[C@H](Cc1ccncc1)NC(=O)[C@H](CC(=O)O)NC(=O)[C@H](CO)NC(=O)[C@@H](NC(=O)[C@](C)(Cc1ccccc1F)NC(=O)[C@@H](NC(=O)CNC(=O)[C@H](CCC(=O)O)NC(=O)C(C)(C)NC(=O)[C@@H](N)Cc1ccc(O)cc1)[C@@H](C)O)[C@@H](C)O)[C@@H](C)CC)[C@@H](C)CC)[C@@H](C)CC)C(N)=O)C(=O)O` [Example 431] (H-Y[Aib]EGT[αMePhe(2-F)]TSD[4Pal][Aib]I[αMeL]LD[Orn]K([AEEA-AEEA-γGlu-Lauroyl])AQ[Aib]E[αMeF]I[dE][αMeY]LIEGGPSSGAPPPSK([AEEA-AEEA-γGlu-Lauroyl])-NH2), the Emax was determined as 98% on hGIPR (setting [1]) and 91.6% on hGLP-1R (setting [7]). Moreover, the EC50 on hGIPR (setting [2]) is 0.0097 nM; on hGCGR (setting [3]), > 9950 nM; on hGCGR (setting [4]), > 9950 nM; at hGLP-1R (setting [2]) it was 0.134 nM.
Regarding `CC[C@H](C)[C@H](NC(=O)[C@H](CC(C)C)NC(=O)[C@](C)(Cc1ccc(O)cc1)NC(=O)[C@@H](CCC(=O)O)NC(=O)[C@@H](NC(=O)[C@H](Cc1ccccc1)NC(=O)[C@H](CCCCNC(=O)COCCOCCNC(=O)COCCOCCNC(=O)CC[C@H](NC(=O)CCCCCCCCCCCCC(=O)O)C(=O)O)NC(=O)C(C)(C)NC(=O)[C@H](CCC(N)=O)NC(=O)[C@H](C)NC(=O)[C@H](CCCCNC(=O)COCCOCCNC(=O)COCCOCCNC(=O)CC[C@H](NC(=O)CCCCCCCCCCCCC(=O)O)C(=O)O)NC(=O)[C@H](CCCN)NC(=O)[C@H](CC(=O)O)NC(=O)[C@H](CC(C)C)NC(=O)[C@](C)(CC(C)C)NC(=O)[C@@H](NC(=O)C(C)(C)NC(=O)[C@H](Cc1ccc(O)cc1)NC(=O)[C@H](CC(=O)O)NC(=O)[C@H](CO)NC(=O)[C@@H](NC(=O)[C@](C)(Cc1ccccc1F)NC(=O)[C@@H](NC(=O)CNC(=O)[C@H](CCC(=O)O)NC(=O)C(C)(C)NC(=O)[C@@H](N)Cc1ccc(O)cc1)[C@@H](C)O)[C@@H](C)O)[C@@H](C)CC)[C@@H](C)CC)C(=O)N[C@@H](CCC(=O)O)C(=O)NCC(=O)NCC(=O)N1CCC[C@H]1C(=O)N[C@@H](CO)C(=O)N[C@@H](CO)C(=O)NCC(=O)N[C@@H](C)C(=O)N1CCC[C@H]1C(=O)N1CCC[C@H]1C(=O)N1CCC[C@H]1C(=O)N[C@@H](CO)C(N)=O` [Example 230], the Emax was 85.8% at hGIPR (HEK293, 0.1% bovine casein and 1.0% human serum albumin, 37° C., percent of maximal response to GIP(1-42)NH2); 105% on hGIPR (HEK293, percent of maximal response to GIP(1-42)NH2, 37° C., 0.1% bovine casein, arithmetic mean); 90.3% on hGLP-1R (HEK293, percent of maximal response to GLP-1(7-36)NH2, 37° C., 0.1% bovine casein, arithmetic mean). For the same molecule, the EC50 is 0.0199 nM at hGIPR (setting [8]); > 9950 nM on hGCGR (0.1% bovine casein and 1.0% human serum albumin, 37° C., geometric mean); > 9950 nM on hGCGR (cAMP, incubated at 37° C., 0.1% bovine casein (no human serum albumin), geometric mean); 0.726 nM on hGLP-1R (setting [8]).

Source of the values: patent publication US20230265151A1, “GIP/GLP1 CO-AGONIST COMPOUNDS” (priority 2020, published 2023).
